What was measured:
Assay in all cases: relative viability (nuclei count vs DMSO), 5 days (fraction); higher = more cells survive
Entinostat + Trametinib = compound: Nc1ccccc1NC(=O)c1ccc(CNC(=O)OCc2cccnc2)cc1 [Entinostat] + CC(=O)Nc1cccc(-n2c(=O)n(C3CC3)c(=O)c3c(Nc4ccc(I)cc4F)n(C)c(=O)c(C)c32)c1 [Trametinib] (partner 0.02 µM)
Summary of the method: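 Lung cancer cell lines, seeded in 1536-well plates, were treated the following day by pin tool with a single drug or with five library-drug doses (not always all listed) in √10 steps on top of a fixed anchor-drug dose. Cells were fixed and nuclei stained in one step after 5 days, and nuclei were counted. Relative viability is the nuclei count for treated wells divided by that for vehicle wells, reported as medians of duplicate plates.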

Entinostat = compound: Nc1ccccc1NC(=O)c1ccc(CNC(=O)OCc2cccnc2)cc1 [Entinostat]
Summary of the method: (§1)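 Following overnight incubation at 37 °C, lung cancer cell lines in 1536-well plates were pinned with five library-drug doses (not always all listed) in √10 steps on vehicle-anchored plates. The cells then spent 5 days without medium change before a combined fix, permeabilisation and Hoechst stain, 4× imaging and MetaXpress nuclear counts. Viability is the treated-to-vehicle ratio of nuclei, taken as the median across plates. Only plates with control CV below 25% and at least one doubling passed.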

[1] = compound: C1COCCN1C2=NC(=NC3=C2OC4=C3C=CC=N4)C5=CC(=CC=C5)NC(=O)C6=CN=C(C=C6)N
Summary of the method: as §1

SGI-1776 = compound: CN1CCC(CNc2ccc3ncc(-c4cccc(OC(F)(F)F)c4)n3n2)CC1 [SGI-1776]
Summary of the method: as §1

Cell Line: UMC-11
- relative viability (Entinostat + Trametinib; first compound 0.02 µM): 0.736
- relative viability (Entinostat + Trametinib; first compound 0.06325 µM): 0.895
- relative viability (Entinostat + Trametinib; first compound 0.2 µM): 0.554
- relative viability (Entinostat + Trametinib; first compound 0.6325 µM): 0.163
- relative viability (Entinostat + Trametinib; first compound 2 µM): 0.142
- relative viability (Entinostat; 0.02 µM): 1.14
- relative viability (Entinostat; 0.06325 µM): 1.11
- relative viability (Entinostat; 0.2 µM): 0.918
- relative viability (Entinostat; 0.6325 µM): 0.287
- relative viability (Entinostat; 2 µM): 0.203
- relative viability ([1]; 0.02 µM): 0.983
- relative viability ([1]; 0.06325 µM): 1.05
- relative viability ([1]; 0.2 µM): 0.945
- relative viability ([1]; 0.6325 µM): 1.13
- relative viability ([1]; 2 µM): 0.818
- relative viability (SGI-1776; 0.08 µM): 1
- relative viability (SGI-1776; 0.8 µM): 1.04
- relative viability (SGI-1776; 2.53 µM): 0.923
- relative viability (SGI-1776; 8 µM): 0.779

— the supplement of paper PMC10307832
